This is an account of results in US20030228642A1, “Crohn's disease treatment and efficacy prediction methods” (priority 2002, published 2003).

Where only a bound is given, the exact number is not on record here.

For series [1], the system named is M. para. isolated from resected tissue of CD patients. The experiment in a line: in vitro test of seven antituberculosis drugs against M. para. (Bactec system). Type of series: cell-based, Mycobacterium paratuberculosis. Details: key to Status: R, resistant; S, sensitive. Particulars: for IC99.9: 99.9% M. para. cells inhibited or killed, Bactec system, combinations given as drug:drug, read-out: MIC99.9; for Status: M. para. resistant or sensitive to the drug.

Series [2] deals with Crohn's disease. The experiment in a line: comparison of age-matched MAP-positive and MAP-negative patients at 1 year (CDAI). It is filed as in vivo, human. As to conditions: patients unresponsive to antibiotics, MAP-negative group. From the text:
Another study was undertaken to compare age-matched MAP-positive and -negative patients utilizing ELISA analysis for serum antibodies to MAP. 10 MAP-positive and 10 MAP-negative patients were compared at 1 year, utilizing the CDAI score as a primary endpoint. The elimination of corticosteroids and the need for immunotherapy were considered secondary endpoints. The MAP-positive patients achieved complete remission in 9 out of the 10 cases, with entry CDAI score of 285 and exit score of 111. Steroids were eliminated in 8 of 10 patients, with 2 patients requiring low-dose steroids. In the MAP-negative group at 1 year, 6 of 10 patients were in complete remission, with an entry CDAI score of 308 and an exit score of 179. Of the responsive patients, 3 of 6 required additional immunotherapy, and 3 remained on antibiotics alone.

Series [3] concerns Crohn's disease. As to conditions: cited from earlier work.

On to `CC[C@H]1OC(=O)[C@H](C)[C@@H](O[C@H]2C[C@@](C)(OC)[C@@H](O)[C@H](C)O2)[C@H](C)[C@@H](O[C@@H]2O[C@H](C)C[C@H](N(C)C)[C@H]2O)[C@](C)(OC)C[C@@H](C)C(=O)[C@H](C)[C@@H](O)[C@]1(C)O` [CLR, clarithromycin], for which, in series [1], the IC99.9 is under 1.25 µg/mL and the Status entry is “S”.

In the case of `CC[C@@H](CO)NCCN[C@@H](CC)CO` [EMB, ethambutol], in series [1], the IC99.9 was under 3 µg/mL and the Status result is “S”.

For the compound `NNC(=O)c1ccncc1` [INH, isoniazid], in series [1], the IC99.9 is over 20 µg/mL and the Status result is “R”.

With `NC[C@H]1O[C@H](O[C@H]2[C@H](O)[C@@H](O[C@H]3O[C@H](CO)[C@@H](O)[C@H](N)[C@H]3O)[C@H](N)C[C@@H]2N)[C@H](O)[C@@H](O)[C@@H]1O` [KM, kanamycin], in series [1], the IC99.9 was under 3 µg/mL and the Status result is “R”.

Regarding `NC(=O)c1cnccn1` [PZA, pyrazinamide], in series [1], the IC99.9 is over 20 µg/mL and the Status entry was “R”.

As for `CO[C@H]1/C=C/O[C@@]2(C)Oc3c(C)c(O)c4c(O)c(c(/C=N/N5CCN(C)CC5)c(O)c4c3C2=O)NC(=O)/C(C)=C\C=C\[C@H](C)[C@H](O)[C@@H](C)[C@@H](O)[C@@H](C)[C@H](OC(C)=O)[C@@H]1C` [RIF, Rifampicin], in series [1], the IC99.9 is over 2.6 µg/mL and the Status entry is “R”.

Regarding `[H]/N=C(/N)N[C@H]1[C@H](O)[C@@H](O)[C@H](O[C@@H]2O[C@@H](C)[C@](O)(C=O)[C@H]2O[C@@H]2O[C@@H](CO)[C@H](O)[C@@H](O)[C@@H]2NC)[C@@H](N/C(N)=N\[H])[C@@H]1O` [ST, streptomycin], in series [1], the IC99.9 is over 3 µg/mL and the Status entry was “R”.

On to “infliximab: a monoclonal chimeric antibody to tumor necrosis factor α (TNF-α)”, for which the induction of remission entry in series [2] is on record as “induction of remission in all patients”. Further, the “benefit of every 8-week administration” value in series [3] (over 550 patients with CD, preliminary trial results) is “maintenance of remission and improved quality of life”. Moreover, the “complications of the immunosuppresive effects” value in series [3] (patients treated for CD and rheumatoid arthritis) is given as “Documented cases of miliary tuberculosis”.
